# Experimental data reported in ChEMBL document CHEMBL5465560, “Selectivity Literature for EUbOPEN Chemogenomic Library” (2024).
# Tests used:
# [1] = biological target: Sodium-dependent dopamine transporter (Homo sapiens, UniProt Q01959); experiment: Selectivity interaction (Panel of non-epigenetic targets (kinases, GPCRs, ion channels, and transporters, Eurofins) ) EUB0000271b SLC6A3; conditions: at 1 µM
# [2] = biological target: Choline kinase alpha (Homo sapiens) (UniProt P35790); experiment: Selectivity interaction (Kinase panel (literature)) EUB0001199aCl CHKA; conditions: at 1 µM
# Sequence of Choline kinase alpha (Homo sapiens) (P35790 whole entry, looked up): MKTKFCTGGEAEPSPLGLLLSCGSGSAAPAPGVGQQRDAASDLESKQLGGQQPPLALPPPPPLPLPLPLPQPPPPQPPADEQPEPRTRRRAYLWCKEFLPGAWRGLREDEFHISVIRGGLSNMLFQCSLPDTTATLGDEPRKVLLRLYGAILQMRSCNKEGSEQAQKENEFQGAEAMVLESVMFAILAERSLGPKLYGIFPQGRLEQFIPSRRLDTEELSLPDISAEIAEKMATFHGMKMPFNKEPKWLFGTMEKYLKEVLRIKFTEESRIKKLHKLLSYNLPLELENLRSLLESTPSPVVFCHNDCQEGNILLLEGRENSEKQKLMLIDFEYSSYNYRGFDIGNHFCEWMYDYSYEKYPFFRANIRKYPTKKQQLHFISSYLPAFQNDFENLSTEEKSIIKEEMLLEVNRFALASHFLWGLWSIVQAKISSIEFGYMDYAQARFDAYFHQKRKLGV
# [3] = biological target: T1, Ribosomal protein S6 kinase alpha-3 (Homo sapiens, UniProt P51812); experiment: Selectivity interaction (KinomeScan (DiscoverX)) EUB0000607a RPS6KA3; conditions: at 10 µM
# T1 sequence (P51812 whole entry): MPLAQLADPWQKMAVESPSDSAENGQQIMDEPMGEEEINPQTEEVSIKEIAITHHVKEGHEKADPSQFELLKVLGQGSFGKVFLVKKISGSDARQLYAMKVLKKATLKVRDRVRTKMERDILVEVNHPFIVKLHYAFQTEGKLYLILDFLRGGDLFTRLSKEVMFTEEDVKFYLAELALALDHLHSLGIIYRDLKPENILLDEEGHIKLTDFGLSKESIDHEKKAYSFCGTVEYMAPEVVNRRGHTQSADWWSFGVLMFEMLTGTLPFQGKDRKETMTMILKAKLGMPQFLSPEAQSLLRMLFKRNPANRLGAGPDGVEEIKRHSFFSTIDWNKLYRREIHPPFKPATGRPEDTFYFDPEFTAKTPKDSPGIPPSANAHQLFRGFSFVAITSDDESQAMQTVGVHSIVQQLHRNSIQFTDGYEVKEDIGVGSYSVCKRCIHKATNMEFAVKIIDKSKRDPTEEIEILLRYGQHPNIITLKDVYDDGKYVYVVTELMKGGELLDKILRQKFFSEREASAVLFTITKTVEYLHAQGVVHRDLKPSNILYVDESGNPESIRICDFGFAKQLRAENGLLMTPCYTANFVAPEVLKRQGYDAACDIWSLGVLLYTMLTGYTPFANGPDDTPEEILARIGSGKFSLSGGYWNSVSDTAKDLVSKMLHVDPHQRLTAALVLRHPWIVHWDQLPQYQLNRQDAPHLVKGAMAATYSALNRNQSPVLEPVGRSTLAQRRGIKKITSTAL
# [4] = biological target: T1, Ribosomal protein S6 kinase alpha-3; experiment: Selectivity interaction (ActivX KiNativ screen (ex vivo kinase selectivity in human PBMCs)) EUB0001619a RPS6KA3; format: cell-based; conditions: PBMC, at 1 µM
# [5] = biological target: LIM domain kinase 2 (Homo sapiens) (UniProt P53671); experiment: Selectivity interaction (KinomeScan (DiscoverX)) EUB0001619a LIMK2; conditions: at 1 µM
# Sequence of LIM domain kinase 2 (Homo sapiens) (P53671 whole entry, looked up, the tested form may be a part): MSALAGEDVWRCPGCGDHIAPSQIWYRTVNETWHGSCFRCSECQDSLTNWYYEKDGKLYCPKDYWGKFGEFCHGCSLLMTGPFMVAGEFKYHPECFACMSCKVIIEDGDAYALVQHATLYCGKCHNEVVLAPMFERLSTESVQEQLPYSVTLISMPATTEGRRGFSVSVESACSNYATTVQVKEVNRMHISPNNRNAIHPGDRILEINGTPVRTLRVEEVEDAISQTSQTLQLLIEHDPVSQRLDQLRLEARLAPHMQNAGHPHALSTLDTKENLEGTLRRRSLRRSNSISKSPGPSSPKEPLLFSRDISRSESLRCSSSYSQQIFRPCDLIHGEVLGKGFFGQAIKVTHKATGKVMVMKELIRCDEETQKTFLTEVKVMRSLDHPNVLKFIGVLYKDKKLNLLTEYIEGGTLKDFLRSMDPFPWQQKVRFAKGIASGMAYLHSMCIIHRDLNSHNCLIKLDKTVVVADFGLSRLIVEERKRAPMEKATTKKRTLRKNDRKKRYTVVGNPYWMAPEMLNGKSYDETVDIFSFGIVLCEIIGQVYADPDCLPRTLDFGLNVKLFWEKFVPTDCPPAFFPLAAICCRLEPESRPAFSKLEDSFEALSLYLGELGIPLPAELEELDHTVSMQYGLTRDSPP
# [6] = biological target: T2, cGMP-dependent protein kinase 2 (Homo sapiens) (UniProt Q13237); conditions: at 10 µM
# T2 sequence (whole entry): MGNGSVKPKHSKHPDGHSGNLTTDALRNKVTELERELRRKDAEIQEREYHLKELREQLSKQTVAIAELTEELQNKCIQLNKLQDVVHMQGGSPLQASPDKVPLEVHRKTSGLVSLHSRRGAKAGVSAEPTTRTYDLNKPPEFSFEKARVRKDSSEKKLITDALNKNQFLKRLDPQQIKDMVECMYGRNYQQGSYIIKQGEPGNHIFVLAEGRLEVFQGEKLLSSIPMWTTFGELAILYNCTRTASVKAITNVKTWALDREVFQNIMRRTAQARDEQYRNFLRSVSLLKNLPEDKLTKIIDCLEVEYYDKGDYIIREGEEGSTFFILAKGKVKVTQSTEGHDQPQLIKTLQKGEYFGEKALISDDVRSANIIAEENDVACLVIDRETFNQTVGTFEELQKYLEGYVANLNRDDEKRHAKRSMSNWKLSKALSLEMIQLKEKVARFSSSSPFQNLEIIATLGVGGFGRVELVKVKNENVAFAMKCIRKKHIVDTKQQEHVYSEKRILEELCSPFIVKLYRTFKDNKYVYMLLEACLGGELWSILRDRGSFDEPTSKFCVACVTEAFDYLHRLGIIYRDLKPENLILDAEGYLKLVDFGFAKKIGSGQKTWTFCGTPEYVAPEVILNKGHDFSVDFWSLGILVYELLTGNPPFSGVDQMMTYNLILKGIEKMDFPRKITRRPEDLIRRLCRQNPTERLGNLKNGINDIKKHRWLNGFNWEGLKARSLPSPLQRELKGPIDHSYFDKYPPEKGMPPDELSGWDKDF
# [7] = biological target: Ribosomal protein S6 kinase alpha-5 (Homo sapiens) (UniProt O75582); conditions: at 10 µM
# Sequence of Ribosomal protein S6 kinase alpha-5 (Homo sapiens) (O75582 whole entry, looked up): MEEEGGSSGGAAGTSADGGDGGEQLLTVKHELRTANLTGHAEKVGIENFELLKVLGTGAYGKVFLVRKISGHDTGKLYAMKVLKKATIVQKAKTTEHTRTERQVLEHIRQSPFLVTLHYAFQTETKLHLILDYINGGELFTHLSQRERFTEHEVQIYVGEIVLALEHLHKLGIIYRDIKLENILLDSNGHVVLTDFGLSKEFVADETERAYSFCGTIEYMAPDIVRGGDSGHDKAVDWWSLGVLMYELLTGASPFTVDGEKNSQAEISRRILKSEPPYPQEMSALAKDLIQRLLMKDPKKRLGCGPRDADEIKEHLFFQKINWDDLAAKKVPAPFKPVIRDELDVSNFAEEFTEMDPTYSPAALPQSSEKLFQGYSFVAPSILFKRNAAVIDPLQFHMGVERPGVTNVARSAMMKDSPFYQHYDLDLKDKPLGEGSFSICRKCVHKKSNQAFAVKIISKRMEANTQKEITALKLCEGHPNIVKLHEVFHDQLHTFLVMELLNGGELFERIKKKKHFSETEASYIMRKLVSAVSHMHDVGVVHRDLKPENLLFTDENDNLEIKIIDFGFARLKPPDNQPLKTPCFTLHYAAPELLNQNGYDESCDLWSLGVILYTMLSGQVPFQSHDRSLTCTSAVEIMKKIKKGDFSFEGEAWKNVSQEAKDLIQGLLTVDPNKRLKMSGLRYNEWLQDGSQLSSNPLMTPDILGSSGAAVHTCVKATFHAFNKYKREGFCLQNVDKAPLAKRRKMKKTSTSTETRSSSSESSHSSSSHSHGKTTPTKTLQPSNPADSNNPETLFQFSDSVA
# [8] = biological target: Serine/threonine-protein kinase 16 (Homo sapiens, UniProt O75716); conditions: at 10 µM
# Sequence of Serine/threonine-protein kinase 16 (O75716 whole entry): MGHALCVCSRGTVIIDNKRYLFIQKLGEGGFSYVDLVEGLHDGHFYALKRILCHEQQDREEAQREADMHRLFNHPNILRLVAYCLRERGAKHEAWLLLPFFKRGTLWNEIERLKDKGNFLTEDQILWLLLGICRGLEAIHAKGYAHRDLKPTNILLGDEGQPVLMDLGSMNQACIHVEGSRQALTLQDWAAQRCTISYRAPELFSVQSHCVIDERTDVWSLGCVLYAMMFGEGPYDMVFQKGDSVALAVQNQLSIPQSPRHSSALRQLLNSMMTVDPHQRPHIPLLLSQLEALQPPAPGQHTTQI
# [9] = biological target: T3, NUAK family SNF1-like kinase 2 (Homo sapiens) (UniProt Q9H093); experiment: Selectivity interaction (KinomeScan (DiscoverX)) EUB0000229b NUAK2; conditions: at 10 µM
# T3 sequence (whole entry): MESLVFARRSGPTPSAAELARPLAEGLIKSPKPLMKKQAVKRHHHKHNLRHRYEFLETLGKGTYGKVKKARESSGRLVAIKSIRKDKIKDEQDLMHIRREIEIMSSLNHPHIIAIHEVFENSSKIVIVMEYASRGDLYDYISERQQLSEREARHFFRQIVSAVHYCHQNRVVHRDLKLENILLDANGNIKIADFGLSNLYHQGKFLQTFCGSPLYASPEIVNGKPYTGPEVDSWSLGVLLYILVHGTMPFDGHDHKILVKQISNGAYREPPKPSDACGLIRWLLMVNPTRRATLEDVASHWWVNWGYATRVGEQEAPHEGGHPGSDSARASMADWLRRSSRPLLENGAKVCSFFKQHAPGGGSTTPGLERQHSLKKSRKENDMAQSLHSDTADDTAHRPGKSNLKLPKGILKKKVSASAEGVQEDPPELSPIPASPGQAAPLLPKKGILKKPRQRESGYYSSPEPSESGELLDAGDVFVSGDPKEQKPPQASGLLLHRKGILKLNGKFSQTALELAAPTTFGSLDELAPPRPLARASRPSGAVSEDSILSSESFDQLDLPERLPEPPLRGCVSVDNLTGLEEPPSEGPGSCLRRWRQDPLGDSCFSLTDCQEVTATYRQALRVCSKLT
# [10] = biological target: T4, Serine/threonine-protein kinase TAO3 (Homo sapiens) (UniProt Q9H2K8); experiment: Selectivity interaction (KinomeScan (DiscoverX)) EUB0000092b TAOK3; conditions: at 10 µM
# T4 sequence (whole entry): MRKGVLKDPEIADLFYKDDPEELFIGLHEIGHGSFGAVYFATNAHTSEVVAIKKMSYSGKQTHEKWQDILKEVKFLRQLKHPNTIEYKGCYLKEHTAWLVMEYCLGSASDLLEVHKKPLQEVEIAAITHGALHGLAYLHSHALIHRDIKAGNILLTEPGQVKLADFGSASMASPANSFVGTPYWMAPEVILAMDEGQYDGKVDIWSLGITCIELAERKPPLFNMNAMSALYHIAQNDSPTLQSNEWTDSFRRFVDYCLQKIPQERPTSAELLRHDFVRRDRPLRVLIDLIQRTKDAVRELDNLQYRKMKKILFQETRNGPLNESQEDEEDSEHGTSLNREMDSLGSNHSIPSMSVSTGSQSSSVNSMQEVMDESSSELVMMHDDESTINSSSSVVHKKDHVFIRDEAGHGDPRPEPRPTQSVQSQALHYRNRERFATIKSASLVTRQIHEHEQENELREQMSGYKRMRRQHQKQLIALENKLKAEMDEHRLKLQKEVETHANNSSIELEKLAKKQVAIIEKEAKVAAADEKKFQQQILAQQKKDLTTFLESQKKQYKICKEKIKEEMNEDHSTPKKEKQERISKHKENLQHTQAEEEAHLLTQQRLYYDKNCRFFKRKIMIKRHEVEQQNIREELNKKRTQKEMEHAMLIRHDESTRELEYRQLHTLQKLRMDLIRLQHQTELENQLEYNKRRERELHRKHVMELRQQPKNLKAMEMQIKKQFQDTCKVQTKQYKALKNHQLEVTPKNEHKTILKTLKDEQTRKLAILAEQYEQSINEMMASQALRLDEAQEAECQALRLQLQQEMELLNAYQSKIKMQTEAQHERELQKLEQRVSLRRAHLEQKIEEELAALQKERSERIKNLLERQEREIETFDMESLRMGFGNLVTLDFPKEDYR
# [11] = test system: Hepatocyte growth factor receptor (Homo sapiens), P08581 [Y1235D]; experiment: (§1) Selectivity interaction (KinomeScan (DiscoverX)) EUB0000311b MET; conditions: at 1 µM
# [12] = test system: Hepatocyte growth factor receptor (Homo sapiens), P08581 [M1250T]; experiment: as §1; conditions: at 1 µM
# [13] = biological target: Hepatocyte growth factor receptor (Homo sapiens, UniProt P08581); experiment: as §1; conditions: at 1 µM
# Sequence of Hepatocyte growth factor receptor (P08581 whole entry): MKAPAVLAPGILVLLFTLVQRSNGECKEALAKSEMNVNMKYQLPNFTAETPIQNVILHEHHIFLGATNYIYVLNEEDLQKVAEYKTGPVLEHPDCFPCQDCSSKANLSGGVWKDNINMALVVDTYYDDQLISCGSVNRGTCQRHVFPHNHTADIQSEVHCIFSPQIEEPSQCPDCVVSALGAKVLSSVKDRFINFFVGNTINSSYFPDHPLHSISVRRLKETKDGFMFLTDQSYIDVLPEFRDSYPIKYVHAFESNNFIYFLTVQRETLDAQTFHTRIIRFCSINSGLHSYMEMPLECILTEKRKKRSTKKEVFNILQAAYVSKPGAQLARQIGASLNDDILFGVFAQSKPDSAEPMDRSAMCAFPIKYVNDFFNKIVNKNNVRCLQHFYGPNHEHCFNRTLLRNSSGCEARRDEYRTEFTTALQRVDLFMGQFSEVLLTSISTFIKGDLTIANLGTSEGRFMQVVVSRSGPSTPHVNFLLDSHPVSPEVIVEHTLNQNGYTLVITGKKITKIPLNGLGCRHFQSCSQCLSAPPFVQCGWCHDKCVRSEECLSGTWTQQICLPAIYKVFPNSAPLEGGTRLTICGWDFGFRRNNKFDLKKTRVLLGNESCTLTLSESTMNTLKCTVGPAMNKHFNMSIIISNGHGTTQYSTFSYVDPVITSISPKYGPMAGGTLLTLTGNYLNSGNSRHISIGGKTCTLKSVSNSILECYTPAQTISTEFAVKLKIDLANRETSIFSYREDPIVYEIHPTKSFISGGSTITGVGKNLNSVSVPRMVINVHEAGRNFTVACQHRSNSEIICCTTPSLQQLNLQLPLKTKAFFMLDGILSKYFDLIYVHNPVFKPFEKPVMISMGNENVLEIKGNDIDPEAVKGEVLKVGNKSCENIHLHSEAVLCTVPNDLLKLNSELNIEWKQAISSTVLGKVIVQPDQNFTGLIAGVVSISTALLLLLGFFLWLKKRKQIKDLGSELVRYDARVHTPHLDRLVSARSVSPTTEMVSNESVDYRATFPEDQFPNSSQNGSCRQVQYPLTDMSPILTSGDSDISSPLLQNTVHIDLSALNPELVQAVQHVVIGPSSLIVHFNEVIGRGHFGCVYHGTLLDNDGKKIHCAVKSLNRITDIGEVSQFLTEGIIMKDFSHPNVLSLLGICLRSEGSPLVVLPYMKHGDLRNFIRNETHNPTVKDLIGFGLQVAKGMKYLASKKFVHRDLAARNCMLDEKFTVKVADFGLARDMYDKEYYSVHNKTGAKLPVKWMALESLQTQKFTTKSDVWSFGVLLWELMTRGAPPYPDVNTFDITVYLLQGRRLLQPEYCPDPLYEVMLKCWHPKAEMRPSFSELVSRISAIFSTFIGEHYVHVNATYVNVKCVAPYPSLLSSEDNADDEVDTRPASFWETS
# Sequence of Sodium-dependent dopamine transporter (Q01959 whole entry): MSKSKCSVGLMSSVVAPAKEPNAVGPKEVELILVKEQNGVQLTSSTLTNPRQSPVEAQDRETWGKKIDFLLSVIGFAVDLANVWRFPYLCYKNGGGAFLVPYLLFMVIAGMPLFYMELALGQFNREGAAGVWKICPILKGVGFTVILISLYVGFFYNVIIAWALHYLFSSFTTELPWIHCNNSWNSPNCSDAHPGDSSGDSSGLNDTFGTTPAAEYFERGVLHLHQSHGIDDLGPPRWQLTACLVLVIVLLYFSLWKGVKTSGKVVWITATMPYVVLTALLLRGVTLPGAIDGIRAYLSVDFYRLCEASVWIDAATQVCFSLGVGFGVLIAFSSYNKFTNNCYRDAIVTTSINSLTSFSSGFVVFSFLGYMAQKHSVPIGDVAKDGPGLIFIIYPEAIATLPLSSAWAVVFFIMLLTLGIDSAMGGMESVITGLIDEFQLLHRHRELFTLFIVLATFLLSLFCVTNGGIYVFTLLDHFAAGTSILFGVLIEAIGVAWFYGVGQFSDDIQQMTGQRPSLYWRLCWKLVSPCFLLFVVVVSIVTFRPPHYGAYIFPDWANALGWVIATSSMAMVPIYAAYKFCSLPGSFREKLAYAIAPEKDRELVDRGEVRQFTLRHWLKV
structure (smiles),measurement,setting,value
Cc1cc(C)cc([C@@H]2c3cc(C)ccc3NC(=O)CN2C(=O)c2ccc(Br)s2)c1,% of inhibition,[1],6%
CN1Cc2nccc(-c3cn(C)nc3-c3ccc(F)cc3)c2C1=O,% of inhibition,[2],-3%
CNC(=O)Nc1ccc(-c2nc(N3CC4CCC(C3)O4)c3cnn(C4CCC5(CC4)OCCO5)c3n2)cc1,% of control,[3],100%
N#Cc1cccc(-c2c[nH]c3ncnc(N4CCOCC4)c23)c1,% of inhibition,[4],21%
same,% of control,[5],96%
Cc1cc([C@@H](C)Nc2ccccc2C(=O)O)c2nc(N3CCOCC3)cc(=O)n2c1 [AZD-6482],% of control,[6],98%
same,% of control,[7],81%
same,% of control,[8],77%
COc1cc(N(C)c2ccnc3ccc(C(F)(F)F)cc23)cc(OC)c1OC,% binding,[9],86%
CCC(=O)N1CCN(c2ccc(-n3c(=O)ccc4cnc5ccc(-c6cnc7ccccc7c6)cc5c43)cc2C(F)(F)F)CC1,% of control,[10],76%
CCc1ccccc1C(=O)Nc1n[nH]c2c(C)c(F)c(C3C(C#N)=C(C)N(C)C(C)=C3C#N)cc12 [BAY-3827],% of control,[11],16%
same,% of control,[12],25%
same,% of control,[13],7.3%
